Source: PMC4646457 (PLoS ONE, 2015)
Where two headings read alike, the source gives them in different places.

How the values were obtained:
[1] = molecular target: HER2 (Homo sapiens, UniProt P04626); assay: Quantitative IHC of phosphorylated HER2 in patient tumor (EGF10027); format: in vivo; settings: for p-HER2 post-treatment OD: plasma […]
[2] = tested on: HER2; settings: read-out: IC50 for HER2; stated as target binding affinity, ref not given; cited from earlier work
[3] = in vivo; settings: female, CB-17 SCID, mouse; for MRT last: MRTlast
[4] = molecular target: ErbB1 tyrosine kinase; settings: read-out: IC50, ErbB1 tyrosine kinase; in vitro kinase assay; ref EGF10027 protocol, CIB RM2000/00481/06; cited from earlier work
[5] = cited from earlier work; for frequency of achieving ≥75% inhibition of one of four key biomarkers (p-EGFR, p-ErbB2, p-ERK1/2, p-AKT): tumor
[6] = ref EGF10027 protocol, CIB RM2000/00481/06, cited from earlier work
[7] = BT474 tumor, po, 100 mg/kg, 100 mg/kg BID, multiple doses
[8] = BT474 tumor, po, 100 mg/kg, single dose
[9] = BT474 tumor, po, 200 mg/kg, 200 mg/kg QD, multiple doses
[10] = BT474 tumor, po, 200 mg/kg, single dose
[11] = blood, oral, 100 mg/kg, individual animals 1-3, blood, 100 mg/kg BID
[12] = blood, po, 100 mg/kg, 100 mg/kg BID, multiple doses
[13] = blood, po, 100 mg/kg, single dose
[14] = blood, po, 200 mg/kg, 200 mg/kg QD, multiple doses
[15] = blood, po, 200 mg/kg, single dose
[16] = kidney, oral, 100 mg/kg, single dose
[17] = kidney, oral, 100 mg/kg, individual animals 1-3, kidney, 100 mg/kg BID
[18] = kidney, oral, 200 mg/kg, single dose
[19] = kidney, oral, 200 mg/kg, individual animals 1-3, kidney, 200 mg/kg QD
[20] = kidney, po, 100 mg/kg, 100 mg/kg BID, multiple doses
[21] = kidney, po, 200 mg/kg, 200 mg/kg QD, multiple doses
[22] = liver, oral, 100 mg/kg, single dose
[23] = liver, oral, 100 mg/kg, individual animals 1-3, liver, 100 mg/kg BID
[24] = liver, oral, 200 mg/kg, single dose
[25] = liver, oral, 200 mg/kg, individual animals 1-3, liver, 200 mg/kg QD
[26] = liver, po, 100 mg/kg, 100 mg/kg BID, multiple doses
[27] = liver, po, 200 mg/kg, 200 mg/kg QD, multiple doses
[28] = tumor, oral, 100 mg/kg, individual animals 1-3, tumor, 100 mg/kg BID
[29] = tumor, oral, 200 mg/kg, individual animals 1-3, tumor, 200 mg/kg QD

HER2 (Homo sapiens, UniProt P04626), sequence (P04626 23-1255): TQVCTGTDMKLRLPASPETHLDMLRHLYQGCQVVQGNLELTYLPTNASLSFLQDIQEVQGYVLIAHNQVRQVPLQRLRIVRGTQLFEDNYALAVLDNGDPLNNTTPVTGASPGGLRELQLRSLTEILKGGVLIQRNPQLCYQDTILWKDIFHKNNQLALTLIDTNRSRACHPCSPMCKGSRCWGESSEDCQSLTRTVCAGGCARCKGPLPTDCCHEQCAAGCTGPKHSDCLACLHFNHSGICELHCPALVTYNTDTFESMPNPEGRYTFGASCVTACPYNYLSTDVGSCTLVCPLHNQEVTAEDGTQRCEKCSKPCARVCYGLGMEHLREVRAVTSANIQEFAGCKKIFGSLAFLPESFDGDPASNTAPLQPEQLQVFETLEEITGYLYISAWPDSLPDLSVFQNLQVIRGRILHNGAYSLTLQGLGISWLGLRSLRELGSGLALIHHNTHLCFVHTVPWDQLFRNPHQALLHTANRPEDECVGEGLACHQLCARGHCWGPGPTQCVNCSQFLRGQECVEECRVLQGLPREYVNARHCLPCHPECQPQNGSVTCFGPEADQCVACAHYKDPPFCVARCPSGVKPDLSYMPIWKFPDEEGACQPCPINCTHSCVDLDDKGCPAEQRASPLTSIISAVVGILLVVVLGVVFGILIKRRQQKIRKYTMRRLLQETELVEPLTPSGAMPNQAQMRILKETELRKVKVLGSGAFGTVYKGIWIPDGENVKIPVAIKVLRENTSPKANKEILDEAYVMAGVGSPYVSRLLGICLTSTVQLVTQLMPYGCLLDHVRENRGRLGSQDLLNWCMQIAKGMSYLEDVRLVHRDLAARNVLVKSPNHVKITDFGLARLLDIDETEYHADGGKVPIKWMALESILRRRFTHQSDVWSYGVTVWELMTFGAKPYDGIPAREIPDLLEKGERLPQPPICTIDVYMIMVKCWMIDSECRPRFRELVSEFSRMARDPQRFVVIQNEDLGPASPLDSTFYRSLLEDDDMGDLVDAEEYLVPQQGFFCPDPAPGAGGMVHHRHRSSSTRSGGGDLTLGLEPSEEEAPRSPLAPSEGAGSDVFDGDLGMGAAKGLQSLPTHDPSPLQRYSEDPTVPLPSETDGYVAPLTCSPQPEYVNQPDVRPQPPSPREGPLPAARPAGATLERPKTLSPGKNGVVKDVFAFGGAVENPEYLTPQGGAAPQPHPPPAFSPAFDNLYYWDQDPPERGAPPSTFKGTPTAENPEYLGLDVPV

With CS(=O)(=O)CCNCc1ccc(-c2ccc3ncnc(Nc4ccc(OCc5cccc(F)c5)c(Cl)c4)c3c2)o1 [lapatinib] the “p-HER2 post-treatment OD, mean” value ([1]; mean of listed subjects) was 9.00 OD, the “HER2 phosphorylation in tumor” value ([1]; one patient with ABCB1 SNP C3435T, plasma 1 μM, tumor 9 μM) was “complete inhibition” and the “p-HER2 post-treatment OD” value ([1]; subject 5, tumor 25.60 µM) was 10 OD. For the same molecule, the “p-HER2 post-treatment OD” value ([1]; subject 1405, tumor 12.76 µM) was 17 OD, the IC50 [2] was 25 nM and the concentration at 96 h ([3]; BT474 tumor, oral, 200 mg/kg, individual animals 1-3, tumor, 200 mg/kg QD) was 915 ng/mL. It also gave an AUC(0-t) ([3]; BT474 tumor, po, 100 mg/kg, AUClast, 100 mg/kg BID, multiple doses) of 1120 µg·h/mL, an AUC(0-t) ([3]; BT474 tumor, po, 100 mg/kg, AUClast, single dose) of 313 µg·h/mL and a Cmax [3, 7] of 55800 ng/mL. The Cmax [3, 8] was 24900 ng/mL, the MRT last [3, 7] was 20.5 h and the MRT last [3, 8] was 12.6 h. The Tmax [3, 7] was 4 h, the Tmax [3, 8] was 12 h and the AUC(0-t) ([3]; BT474 tumor, po, 200 mg/kg, AUClast, 200 mg/kg QD, multiple doses) was 1320 µg·h/mL. It also gave an AUC(0-t) ([3]; BT474 tumor, po, 200 mg/kg, AUClast, single dose) of 579 µg·h/mL, a Cmax [3, 9] of 79200 ng/mL and a Cmax [3, 10] of 44000 ng/mL. It also gave an MRT last [3, 9] of 18.7 h, an MRT last [3, 10] of 17.5 h and a Tmax [3, 9] of 10 h. It also gave a Tmax [3, 10] of 1 h, a half-life ([3]; blood, liver, kidney, tumor, oral, 100 mg/kg) of 4 h and a concentration at 10 h [3, 11] of 3080 ng/mL. The concentration at 24 h [3, 11] was 95.2 ng/mL, the concentration at 24 h ([3]; blood, oral, 200 mg/kg, individual animals 1-3, blood, 200 mg/kg QD) was 28 ng/mL and the AUC(0-t) ([3]; blood, po, 100 mg/kg, AUClast, 100 mg/kg BID, multiple doses) was 102 µg·h/mL. It also gave an AUC(0-t) ([3]; blood, po, 100 mg/kg, AUClast, single dose) of 46.7 µg·h/mL, a Cmax [3, 12] of 9350 ng/mL and a Cmax [3, 13] of 7040 ng/mL. The MRT last [3, 12] was 6.9 h, the MRT last [3, 13] was 6.3 h and the Tmax [3, 12] was 1 h. The Tmax [3, 13] was 1 h, the AUC(0-t) ([3]; blood, po, 200 mg/kg, AUClast, 200 mg/kg QD, multiple doses) was 152 µg·h/mL and the AUC(0-t) ([3]; blood, po, 200 mg/kg, AUClast, single dose) was 88.2 µg·h/mL. It also gave a Cmax [3, 14] of 16100 ng/mL, a Cmax [3, 15] of 8220 ng/mL and an MRT last [3, 14] of 7.3 h. For the same molecule, the MRT last [3, 15] was 8.5 h, the Tmax [3, 14] was 10 h and the Tmax [3, 15] was 12 h. The AUC(0-t) ([3]; kidney, oral, 100 mg/kg, AUClast, single dose) was 267 µg·h/mL, the Cmax [3, 16] was 29800 ng/mL and the concentration at 1 h [3, 17] was 57200 ng/mL. It also gave a concentration at 4 h [3, 17] of 72300 ng/mL, a concentration at 48 h [3, 17] of 114 ng/mL and a concentration at 72 h [3, 17] of 94.5 ng/mL. For the same molecule, the concentration at 96 h [3, 17] was 47.9 ng/mL, the MRT last [3, 16] was 7.7 h and the Tmax [3, 16] was 1 h. For the same molecule, the AUC(0-t) ([3]; kidney, oral, 200 mg/kg, AUClast, single dose) was 633 µg·h/mL, the Cmax [3, 18] was 64900 ng/mL and the concentration at 1 h [3, 19] was 48300 ng/mL. For the same molecule, the concentration at 24 h [3, 19] was 144 ng/mL, the concentration at 72 h [3, 19] was 77.3 ng/mL and the concentration at 96 h [3, 19] was 49.9 ng/mL. For the same molecule, the MRT last [3, 18] was 9 h, the Tmax [3, 18] was 12 h and the AUC(0-t) ([3]; kidney, po, 100 mg/kg, AUClast, 100 mg/kg BID, multiple doses) was 1170 µg·h/mL. It also gave a Cmax [3, 20] of 98500 ng/mL, an MRT last [3, 20] of 8.4 h and a Tmax [3, 20] of 10 h. For the same molecule, the AUC(0-t) ([3]; kidney, po, 200 mg/kg, AUClast, 200 mg/kg QD, multiple doses) was 1320 µg·h/mL, the Cmax [3, 21] was 136000 ng/mL and the MRT last [3, 21] was 8 h. For the same molecule, the Tmax [3, 21] was 10 h, the AUC(0-t) ([3]; liver, oral, 100 mg/kg, AUClast, single dose) was 414 µg·h/mL and the Cmax [3, 22] was 46700 ng/mL. For the same molecule, the concentration at 1 h [3, 23] was 107000 ng/mL, the concentration at 4 h [3, 23] was 90700 ng/mL and the concentration at 48 h [3, 23] was 193 ng/mL. The concentration at 72 h [3, 23] was 121 ng/mL, the concentration at 96 h [3, 23] was 66.9 ng/mL and the MRT last [3, 22] was 7.5 h. The Tmax [3, 22] was 1 h, the AUC(0-t) ([3]; liver, oral, 200 mg/kg, AUClast, single dose) was 1050 µg·h/mL and the Cmax [3, 24] was 110000 ng/mL. The concentration at 1 h [3, 25] was 137000 ng/mL, the concentration at 4 h [3, 25] was 223000 ng/mL and the concentration at 48 h [3, 25] was 173 ng/mL. The concentration at 72 h [3, 25] was 101 ng/mL, the concentration at 96 h [3, 25] was 98.3 ng/mL and the MRT last [3, 24] was 9.4 h. It also gave a Tmax [3, 24] of 12 h, an AUC(0-t) ([3]; liver, po, 100 mg/kg, AUClast, 100 mg/kg BID, multiple doses) of 1380 µg·h/mL and a Cmax [3, 26] of 119000 ng/mL. The MRT last [3, 26] was 8 h, the Tmax [3, 26] was 10 h and the AUC(0-t) ([3]; liver, po, 200 mg/kg, AUClast, 200 mg/kg QD, multiple doses) was 2110 µg·h/mL. The Cmax [3, 27] was 240000 ng/mL, the MRT last [3, 27] was 8.4 h and the Tmax [3, 27] was 10 h. The half-life ([3]; tumor, oral) was 15.6 h, the concentration at 4 h [3, 28] was 51400 ng/mL and the concentration at 10 h [3, 28] was 59200 ng/mL. The concentration at 4 h [3, 29] was 47400 ng/mL, the concentration at 10 h [3, 29] was 71800 ng/mL and the AUC(0-t) ([3]; tumor, po, 100 mg/kg, AUC 0–12, tumor, median (range), n = 3, after fifth dose of 100 mg/kg BID) was 396 µM·h. For the same molecule, the AUC(0-t) ([3]; tumor, po, 200 mg/kg, AUC 0–24, tumor, median (range), n = 3, after third dose of 200 mg/kg QD) was 1950 µM·h, the half-life ([3]; whole blood, oral) was 3.9 h and the AUC(0-t) ([3]; whole blood, po, 100 mg/kg, AUC 0–12, blood, median (range), n = 3, after fifth dose of 100 mg/kg BID) was 104 µM·h. The AUC(0-t) ([3]; whole blood, po, 200 mg/kg, AUC 0–24, blood, median (range), n = 3, after third dose of 200 mg/kg QD) was 739 µM·h, the IC50 [4] was 10 nM and the incidence of rash ([5]; cancer patients, preliminary, ref study EGF10004) was 12%. The “maximum tolerated dose (not reached at maximum dose given)” value ([5]; patients, ref preliminary analysis of EGF10004) was > 1800 mg/day, the “frequency of achieving ≥75% inhibition of one of four key biomarkers (p-EGFR, p-ErbB2, p-ERK1/2, p-AKT)” value ([5]; 500 mg once daily, ref study EGF10004, listed as GW572016) was 29% and the “frequency of achieving ≥75% inhibition of one of four key biomarkers (p-EGFR, p-ErbB2, p-ERK1/2, p-AKT)” value ([5]; 650 mg once daily, ref study EGF10004, listed as GW572016) was 50%. The “frequency of achieving ≥75% inhibition of one of four key biomarkers (p-EGFR, p-ErbB2, p-ERK1/2, p-AKT)” value ([5]; 900 mg once daily, ref study EGF10004, listed as GW572016) was 44%, the “frequency of achieving ≥75% inhibition of one of four key biomarkers (p-EGFR, p-ErbB2, p-ERK1/2, p-AKT)” value ([5]; 1200 mg once daily, ref study EGF10004) was 75% and the “frequency of achieving ≥75% inhibition of one of four key biomarkers (p-EGFR, p-ErbB2, p-ERK1/2, p-AKT)” value ([5]; 1600 mg once daily, ref study EGF10004, listed as GW572016) was 83%. For the same molecule, the NOAEL ([6]; female rats) was 20 mg/kg/day, the NOAEL ([6]; male rats) was 60 mg/kg/day and the “generally well tolerated dose” value ([6]; rats, up to 13 weeks) was ≤ 60 mg/kg/day.
